Experimental findings from EP0253697A2, “Medicament and medicament compositions for the treatment of infective diseases due to viruses, as well as for the treatment of tumours” (INSTITUT NATIONAL DE LA SANTE ET DE LA RECHERCHE MEDICALE …, priority 1986, dated 1988) are described below.

One series relates to virus Visna. Put plainly: Reverse transcriptase activity, infected sheep embryo fibroblasts. The series is classed as cell-based, mouton. Conditions: GAH present at the time of infection, versus untreated cells; Figure 1B.
For series [1], the system named is virus du sarcome de Rous (RSV, souche B77). Put plainly: Reverse transcriptase activity in culture medium and focus formation, infected chicken fibroblasts. It counts as cell-based, poulet. The text has this: Il a été également montré que le GAH provoque aussi une importante inhibition de la multiplication des virus appartenant à la famille des rétrovirus (virus à ARN possédant une activité dite de transcriptase inverse, c'est-à-dire une ADN polymé- rase-ARN dépendante). Ceci a été démontré avec le virus du sarcome de Rous (RSV, virus oncogène, sous-famille oncovirinae) et avec le virus visna (virus lytique, sous-famille lentivirinae à laquelle appartient aussi le H.I.V.). • 1 - Des fibroblastes de poulet, en passage secondaire, sont ensemencés et traités, ou non, par le GAH à diverses concentrations. Ensuite, les cellules sont infectées par le RSV (souche B77). Le milieu de culture des cellules infectées est recueilli à différents temps post- infection et l'activité transcriptase inverse a été mesurée, cette mesure étant considérée généralement comme un reflet de la libération des particules virales dans les milieux de culture. […] Il est intéressant de signaler que, comme dans le cas des hespesvirus, l'activité antivirable apparaît à la même dose de GAH capable de provoquer l'arrêt de la prolifération cellulaire, ce qui est en accord avec la notion d'une action du GAH agissant en premier lieu au niveau cellulaire.

In series [2] the test system is cellules de lymphome murin RBL5. Put plainly: DNA synthesis (3H-thymidine incorporation) in tumour cells. It counts as cell-based.
For series [3], the system named is colonies métas- tasiantes du mélanome B 16. Put plainly: Cytolytic effect on cells isolated from metastases in vitro. It counts as cell-based.
The test system of a further series is mélanome B16. Put plainly: Survival of mice inoculated with B16 melanoma. It counts as in vivo, souris. Conditions: 10^6 cells IP; 1200 mg/kg/day days 1-4, 600 mg/kg/day days 8-11, 300 mg/kg/day days 16-19; Figure 9. The text has this: (§1) Compte tenu des résultats in vitro, l'activité anti-tumorale de GAH a été étudiée sur deux modèles tumoraux murins : leucémie L1 210 et mélanome B16.
Pour le mélanome B16, maintenu par passage souscutanés successifs, la dose injectée par voie intra-péritonéale pour les essais thérapeutiques est de 10^6 cellules par souris.
(§2) Les résultats positifs qui ont été obtenus sont exprimés par le pourcentage d'augmentation de la survie, considérant comme significative une augmentation de 30%.
Courbe de survie des souris C5b16 inoculées avec les cellules de mélanome B16 (10^6 cellules dans 0,5 ml IP)après traitement avec GAH : 1200 mg/kg dose/jour, les jours 1, 2, 3, 4; 600 mg/kg dose/jour, les jours 8, 9, 10, 11; et 300 mg/kg dose/jour, les jours 16, 17, 18, 19 (les groupes traités et non traités sont de 6 animaux). - Abscisses : jours après l'inoculation de cellules tumorales - Ordonnées : pourcentage de souris vivantes

For a further series, the system named is mélanome. Put plainly: DNA synthesis (3H-thymidine incorporation) in tumour cells. It counts as cell-based, humain. The source says:
(§3) L'effet du GAH a été étudié sur diverses lignées cellulaires obtenues à partir de tumeurs humaines et fibroblastes de poumon foetal humain (MRC5).
(§4) - Ordonnées : incorporation de ^3H-thymidine (comptage de la radioactivité correspondante en coups par minute (CPM).
In general terms: Incorporation of labelled thymidine or its analogues reports DNA synthesis.

The subject of series [4] is carcinome de tumeur mammaire (lignée MCF7). Described as above. The series is classed as cell-based, humain.
Source text: as §3, §4

In series [5] the test system is cellules de tumeurs de Burkitt. The series is described as above. The series is classed as cell-based, humain.
Source text: as §3, §4

Series [6] has as its system carcinome du colon (lignée HT29). The series is described as above. It counts as cell-based, humain.
Source text: as §3, §4

Series [7] has as its system llgnée de tumeur d' Ewing. Described as above. The series is classed as cell-based, humain.
Source text: as §3, §4

A further series concerns cellules de mélanome. Put plainly: Survival of melanoma cells versus dose and contact time. The series is classed as cell-based. On the procedure: Sur une lignée de mélanome prise comme exemple, on peut voir que l'effet inhibiteur est dépendant de la dose (Figure 3), mais également du temps de contact. Dès 2 heures de contact des cellules de mélanome avec 1,5 mM de GAH, il y a mort cellulaire, qui s'amplifie jusqu'à 72 heures de culture des cellules tumorales, puis les cellules échappent à cette inhibition (Figure 4). […] Ainsi, pour les cellules de mélanome, un contact de 30 heures avec 1,5 mM de GAH est nécessaire pour avoir une mort cellulaire complète à 72 heures, alors que 50 heures de contact sont nécessaires avec une concentration de drogue de 400 µM (Figure 5).
- Abscisses : temps de contact des cellules de mélanome avec différentes concentrations de GAH : • 400 µM; ○ 1 mM; . 1,5 mM - Ordonnées : pourcentage de survie des cellules de mélanome à 72 heures.

Series [8] is described as follows: Growth, DNA synthesis and survival of normal MRC5 cells. The series is classed as cell-based, humain. Conditions: human; normal MRC5 cells, Figure 6; read-out: doses sans mort cellulaire.
Source text: as §3
(§5) La croissance des cellules MRC5 dans un milieu déprimé en glutamine est aussi arrêtée, avec, cependant, un décalage dans l'inhibition par rapport à l'effet du GAH. […] Il s'agit probablement de deux mécanismes d'action différents.
(§6) • - Abscisses : temps de culture des cellules MRC5 : 1. avec différentes conditions de culture • O témoin MRC5 milieu normal • milieu déprimé en glutamine • ? milieu normal avec D-glutamyl acide (GAH 2. après élimination des différentes drogues et addition • ? milieu normal MRC5 témoin • milieu avec glutamine 2mM • ? milieu normal • ? milieu GAH + glutamine 2mM • - Ordonnées : nombre de cellules vivantes.

For the next series, the system named is cellules normales MRC5. Described as above. The series is classed as cell-based, humain.
Source text: as §3, §5, §6

In series [9] the test system is leucémie L1 210. Put plainly: Survival of mice inoculated with L1 210 leukaemia. It counts as in vivo, souris DBA/2. Particulars: 5x10^5 cells IP; 1200 mg/kg/day days 1-4, 600 mg/kg/day days 8-10; Figure 8.
Source text: as §1
Pour la leucémie L1 210, maintenue par passage intra-péritonéal chez la souris DBA/2, le nombre de cellules utilisées pour les essais thérapeutiques est de 5.10^5 cellules par souris.
as §2
Courbe de survie des souris DBA/2-B6D2F1 inoculées avec L1 210 (5x10^5 cellules dans 0,5 ml IP) après traitement avec L-glutamique acide monohydroxamate : 1200 mg/kg dose/jour, les jours 1, 2, 3, 4; et 600 mg/kg dose/jour, les jours 8, 9, 10 (les groupes sont constitués de 8 souris.). - Abscisses : jours après l'inoculation de cellules tumorales - Ordonnées : pourcentage de souris vivantes.

The subject of a further series is virus de la rougeole. Put plainly: Inhibition of viral lysis plaque formation (PFU) in infected VERO cells. Particulars: in vitro, RNA virus. The series is classed as cell-based. The source says: (§7) Des cellules VERO (lignée de cellules "normales") ont été infectées par le virus de l'herpès simplex du type 1 (HSV.1) ou par le virus de la rougeole à une multiplicité d'infection d'une particule infectieuse par cellule. Les cellules infectées ont été traitées par GAH aux doses indiquées sur la Figure 1. L'inhibition observée, emprimée en logarithme d'inhibition de la formation de plages de lyse cellulaire par le virus (PFU-"Plage Forming Unit") par ml de milieu, semble apparaître brusquement après avoir dépassé une concentration "seuil" située autour de 600 lim. par litre de milieu cellulaire. Le fait que la concentration optimale soit la même pour les deux virus testés, qui, comme indiqué ci-dessus, sont très différents, est en faveur d'une action de la substance au niveau cellulaire, action capable d'éveiller un état de résistance envers les virus infectants.

Series [10] has as its system virus de l'herpès simplex du type 1 (HSV.1). The description is as above. It counts as cell-based. Particulars: in vitro, DNA virus.
Source text: as §7

Series [11] has as its system leucémie L1 210. Put plainly: DNA synthesis (3H-thymidine incorporation) in tumour cells. It counts as cell-based, murin. Particulars: Figure 2.
Source text: as §3
- Abscisses : temps de contact des différentes cellules avec le le L-glutamique acide y monohydroxamate : 1-L1210 • 2 - BL60 • 3 - NterDau • 4-B16
as §4

For series [12], the system named is cellules (infectées ou non). Put plainly: Toxicity for the cells (infected or not) in the antiviral experiments. The series is classed as cell-based.

Bounds are passed on as bounds.

Take `N[C@@H](CCC(=O)NO)C(=O)O` [GAH, L-glutamique acide y monohydroxamate]: in the series with virus Visna, the activité transcriptase inverse result was “diminution considérable”. Also, in series [1] (GAH 1mM present at the time of infection, chicken fibroblasts, Figure 1A), the “activité transcriptase inverse dans le milieu de culture” value is on record as “indétectable”. The “formation de foyers de cellules transformées par le RSV” value in [1] (GAH-treated cultures, untreated controls show foci after three days) was “aucune formation de foyers”. In addition, the “effet sur la synthèse de l'ADN” value (in series [2]; in the series on mélanome; in series [4]; in series [5]; in [6]; in series [7]) was “effet inhibiteur total” each time. Further, the “effet sur la synthèse de l'ADN” value with leucémie L1 210 [11] is given as “effet inhibiteur total”. Also, the “effet sur des cellules isolées de métastases” value in series [3] was “effet cytolytique”. Also, the “activité antitumorale (augmentation de la survie)” value with mélanome B16 and in the series on leucémie L1 210 [9] was “activité antitumorale” each time. The “temps de contact nécessaire pour une mort cellulaire complète à 72 heures” value in the series on cellules de mélanome (400 µM GAH (Figure 5)) was 50 heures; in the series on cellules de mélanome (1,5 mM GAH (Figure 5)), 30 heures. Besides, the “temps de contact à partir duquel il y a mort cellulaire” value with cellules de mélanome (1,5 mM GAH, death from this contact time on, increasing up to 72 h of culture (Figure 4)) is listed as 2 heures. The MNTC in series [8] is no more than 800 µM. For the same compound, the “synthèse de l'ADN des cellules normales MRC5” value in the series with cellules normales MRC5 is given as “arrêt de synthèse de l'ADN”. Besides, the “réversion de la croissance par addition de glutamine” value with cellules normales MRC5 (GAH-treated MRC5 cells, glutamine 2mM added (Figure 7)) was “ne reverse pas”. In addition, in the series on cellules normales MRC5 (reversible after removal of the drug), the “effet sur les cellules normales” value was “effet cytostatique”. Also, the inhibition du virus result (with virus de la rougeole; in series [10]) was “inhibition très significative” throughout. Besides, in series [12], the “toxicité pour les cellules” value is “faible taux, voire l'absence, de toxicité”.
